Reference: patent US12240862B2, “Inhibitors of peptidylarginine deiminases” (Gilead Sciences, Inc., priority 2020, dated 2025)

target: T1, human PAD4 (Homo sapiens, UniProt Q9UM07); assay: In vitro PAD4 BAEE biochemical assay; details: human PAD4, BAEE substrate; 5 nM PAD4, 2 mM calcium chloride, 3 mM BAEE; geometric mean of multiple experiments
T1 construct: human PAD4 (NM_012387), A2P663, was PCR amplified; His-SUMO (N, cleaved yes); made in house; host or cells: E. coli BL21(DE3)
Summary of the method: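 Tag-free recombinant hPAD4 (5 nM), 2 mM CaCl2, 3 mM BAEE, 50 mM MOPS pH 7.6, 2 mM DTT; 30 min compound preincubation, 2 h reaction, all 25 °C. EDTA quench; ammonia read via o-phthalaldehyde amine coupling, 1 h.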

T1 sequence (Q9UM07 2-663): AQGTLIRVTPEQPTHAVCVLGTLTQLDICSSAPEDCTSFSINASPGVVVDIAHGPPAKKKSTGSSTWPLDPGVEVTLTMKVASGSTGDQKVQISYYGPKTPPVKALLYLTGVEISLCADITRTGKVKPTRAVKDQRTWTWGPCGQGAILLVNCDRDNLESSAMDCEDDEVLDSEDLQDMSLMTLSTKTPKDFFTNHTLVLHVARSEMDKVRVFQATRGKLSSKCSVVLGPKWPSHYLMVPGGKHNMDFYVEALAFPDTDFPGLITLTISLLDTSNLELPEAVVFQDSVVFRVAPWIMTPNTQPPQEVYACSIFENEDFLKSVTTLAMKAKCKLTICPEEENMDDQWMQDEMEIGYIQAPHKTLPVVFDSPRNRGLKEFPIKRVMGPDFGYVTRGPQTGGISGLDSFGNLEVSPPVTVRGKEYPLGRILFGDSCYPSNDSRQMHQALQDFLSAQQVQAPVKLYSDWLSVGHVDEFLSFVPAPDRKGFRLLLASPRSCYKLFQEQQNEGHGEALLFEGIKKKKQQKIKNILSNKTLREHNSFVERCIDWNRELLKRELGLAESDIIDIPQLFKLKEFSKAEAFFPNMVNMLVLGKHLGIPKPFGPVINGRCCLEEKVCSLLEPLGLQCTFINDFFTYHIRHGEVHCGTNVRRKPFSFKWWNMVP

IC50 [nM] | SMILES
19100 | COc1cc(C(=O)N2C[C@@H]3NCCO[C@@H]3C2)cc2nc(-c3cc4ccc(N(C(F)F)S(C)(=O)=O)nc4n3CC3CC3)c(C)n12 [Example 320, ~{N}-[2-[7-[(4~{a}~{S},7~{a}~{R})-3,4,4~{a},5,7,7~{a}-hexahydro-2~{H}-pyrrolo[3,4-b][1,4]oxazine-6-carbonyl]-5-methoxy-3-methylimidazo [1,2-a]pyridin-2-yl]-1-(cyclopropylmethyl)pyrrolo [2,3-b]pyridin-6-yl]-~{N}-(difluoromethyl) methanesulfonamide]
278 | COc1cc(C(=O)N2CC[C@@H]3CCNC[C@@H]32)cc2nc(-c3cc4ccc(N(C(F)F)S(C)(=O)=O)nc4n3CC3CC3)c(C)n12 [Example 321, ~{N}-[2-[7-[(3~{a}~{S},7~{a}~{R})-2,3,3~{a},4,5,6,7,7~{a}-octahydropyrrolo[2,3-c]pyridine-1-carbonyl]-5-methoxy-3-methylimidazo[1,2-a]pyridin-2-yl]-1-(cyclopropylmethyl)pyrrolo [2,3-b]pyridin-6-yl]-~{N}-(difluoromethyl) methanesulfonamide]
258 | COc1cc(C(=O)N2CCC3CCNCC32)cc2nc(-c3cc4ccc(N(C(F)F)S(C)(=O)=O)nc4n3CC3CC3)c(C)n12 (stereo not drawn) [Example 322, ~{N}-[2-[7-(2,3,3~{a}, 4,5,6,7,7~ {a}-octahydropyrrolo[2,3-c]pyridine-1-carbonyl)-5-methoxy-3-methylimidazo [1,2-a]pyridin-2-yl]-1-(cyclopropylmethyl)pyrrolo [2,3-b]pyridin-6-yl]-~{N}-(difluoromethyl) methanesulfonamide]
154 | COc1cc(C(=O)N2CC[C@H]3CCN[C@H]3C2)cc2nc(-c3cc4ccc(N(C(F)F)S(C)(=O)=O)nc4n3CC3CC3)c(C)n12 [Example 325]
3560 | COc1cc(C(=O)N2[C@@H]3CC[C@H]2C[C@@H](N)C3)cc2nc(-c3cc4ccc(N(C(F)F)S(C)(=O)=O)nc4n3CC3CC3)c(C)n12 [Example 326, ~{N}-[2-[7-[(1~{R}, 5~{S})-3-amino-8-azabicyclo[3.2.1]octane-8-carbonyl]-5-methoxy-3-methylimidazo[1,2-a]pyridin-2-yl]-1-(cyclopropylmethyl)pyrrolo[2,3-b]pyridin-6-yl]-~{N}-(difluoromethyl) methanesulfonamide]
4880 | COc1cc(C(=O)N(C)C2CCCNC2)cc2nc(-c3cc4ccc(N(C(F)F)S(C)(=O)=O)nc4n3CC3CC3)c(C)n12 (stereo not drawn) [Example 328, 2-[1-(cyclopropylmethyl)-6-[difluoromethyl (methylsulfonyl)amino]pyrrolo[2,3-b]pyridin-2-yl]-5-methoxy-~{N}, 3-dimethyl-~{N}-piperidin-3-ylimidazo [1,2-a]pyridine-7-carboxamide]
5660 | COc1cc(C(=O)N2C[C@@H]3CCC[C@H]2[C@H]3N)cc2nc(-c3cc4ccc(N(C(F)F)S(C)(=O)=O)nc4n3CC3CC3)c(C)n12 [Example 329, N-[2-[7-[(1S,5S,8S)-8-amino-6-azabicyclo[3.2.1]octane-6-carbonyl]-5-methoxy-3-methyl-imidazo[1,2-a]pyridin-2-yl]-1-(cyclopropylmethyl)pyrrolo [2,3-b]pyridin-6-yl]-N-(difluoromethyl) methanesulfonamide]
233 | COc1cc(C(=O)N2C[C@H]3CCC[C@@H]2[C@@H]3N)cc2nc(-c3cc4ccc(N(C(F)F)S(C)(=O)=O)nc4n3CC3CC3)c(C)n12 [Example 330, N-[2-[7-[(1R,5R,8R)-8-amino-6-azabicyclo[3.2.1]octane-6-carbonyl]-5-methoxy-3-methyl-imidazo [1,2-a]pyridin-2-yl]-1-(cyclopropylmethyl)pyrrolo [2,3-b]pyridin-6-yl]-N-(difluoromethyl) methanesulfonamide]
1420 | COc1cc(C(=O)N2[C@@H]3CCC[C@H]2[C@@H](N)C3)cc2nc(-c3cc4ccc(N(C(F)F)S(C)(=O)=O)nc4n3CC3CC3)c(C)n12 [Example 331, N-[2-[7-[(1R,5S,6S)-6-amino-8-azabicyclo[3.2.1]octane-8-carbonyl]-5-methoxy-3-methyl-imidazo [1,2-a]pyridin-2-yl]-1-(cyclopropylmethyl)pyrrolo [2,3-b]pyridin-6-yl]-N-(difluoromethyl) methanesulfonamide]
390 | COc1cc(C(=O)N2[C@H]3CCC[C@@H]2[C@H](N)C3)cc2nc(-c3cc4ccc(N(C(F)F)S(C)(=O)=O)nc4n3CC3CC3)c(C)n12 [Example 332, N-[2-[7-[(1S,5R,6R)-6-amino-8-azabicyclo[3.2.1]octane-8-carbonyl]-5-methoxy-3-methyl-imidazo [1,2-a]pyridin-2-yl]-1-(cyclopropylmethyl)pyrrolo [2,3-b]pyridin-6-yl]-N-(difluoromethyl) methanesulfonamide]
178 | COc1cc(C(=O)N2CC[C@@H](OC)[C@@H](N)C2)cc2nc(-c3cc4ccc(N(C(F)F)S(C)(=O)=O)nc4n3CC3CC3)c(C)n12 [Example 335, ~{N}-[2-[7-[(3~{S}, 4~{R})-3-amino-4-methoxypiperidine-1-carbonyl]-5-methoxy-3-methylimidazo [1,2-a]pyridin-2-yl]-1-(cyclopropylmethyl)pyrrolo [2,3-b]pyridin-6-yl]-~{N}-(difluoromethyl) methanesulfonamide]
484 | COc1cc(C(=O)N2C[C@H]3CCCN[C@H]3C2)cc2nc(-c3cc4ccc(N(C(F)F)S(C)(=O)=O)nc4n3CC3CC3)c(C)n12 [Example 336, ~{N}-[2-[7-[(4~{a}~{R},7~{a}~{R})-1,2,3,4,4~{a},5,7,7~{a}-octahydropyrrolo[3,4-b]pyridine-6-carbonyl]-5-methoxy-3-methylimidazo[1,2-a]pyridin-2-yl]-1-(cyclopropylmethyl)pyrrolo [2,3-b]pyridin-6-yl]-~{N}-(difluoromethyl) methanesulfonamide]
12100 | COc1cc(C(=O)N2C[C@@H]3CCCN[C@@H]3C2)cc2nc(-c3cc4ccc(N(C(F)F)S(C)(=O)=O)nc4n3CC3CC3)c(C)n12 [Example 337, ~{N}-[2-[7-[(4~{a}~{S}, 7~{a}~{S})-1,2,3,4,4~{a},5,7,7~{a}-octahydropyrrolo[3,4-b]pyridine-6-carbonyl]-5-methoxy-3-methylimidazo[1,2-a]pyridin-2-yl]-1-(cyclopropylmethyl)pyrrolo [2,3-b]pyridin-6-yl]-~{N}-(difluoromethyl) methanesulfonamide]
21500 | COc1cc(C(=O)NC2C3CCCNC32)cc2nc(-c3cc4ccc(N(C(F)F)S(C)(=O)=O)nc4n3CC3CC3)c(C)n12 (stereo not drawn) [Example 339, ~{N}-(2-azabicyclo[4.1.0]heptan-7-yl)-2-[1-(cyclopropylmethyl)-6-[difluoromethyl (methylsulfonyl)amino]pyrrolo[2,3-b]pyridin-2-yl]-5-methoxy-3-methylimidazo[1,2-a]pyridine-7-carboxamide]
230 | CCO[C@@H]1CCN(C(=O)c2cc(OC)n3c(C)c(-c4cc5ccc(N(C(F)F)S(C)(=O)=O)nc5n4CC4CC4)nc3c2)C[C@@H]1N [Example 340, ~{N}-[2-[7-[(3~{S}, 4~{R})-3-amino-4-ethoxypiperidine-1-carbonyl]-5-methoxy-3-methylimidazo [1,2-a]pyridin-2-yl]-1-(cyclopropylmethyl)pyrrolo [2,3-b]pyridin-6-yl]-~{N}-(difluoromethyl) methanesulfonamide]
